Assay results published in patent US10821100B2, “Triazolone compounds as mPGES-1 inhibitors” (Glenmark Pharmaceuticals S.A., priority 2012, dated 2020).

Molecular target: T1, Recombinant human mPGES-1 (Homo sapiens, UniProt O14684)
T1 construct: made in house; host or cells: CHO cells (crude microsomal fractions)
T1 sequence (O14684 1-152): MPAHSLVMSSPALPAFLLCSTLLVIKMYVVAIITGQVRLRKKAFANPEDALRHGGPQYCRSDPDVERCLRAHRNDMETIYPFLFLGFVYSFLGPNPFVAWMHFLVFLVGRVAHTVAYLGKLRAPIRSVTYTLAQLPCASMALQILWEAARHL
Test: In-vitro screening of mPGES-1 inhibitors (inhibition of PGE2 formation from PGH2, HTRF detection)
Assay type: biochemical
Conditions: mPGES-1 enzyme; for inhibition at 1 µM: 1 μM test compound, read-out: Percentage inhibition at 1 μM; for inhibition at 10 µM: 10 μM test compound, read-out: Percentage inhibition at 10 μM; for IC50: class symbols
Summary of the method: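 Crude CHO-expressed microsomes (40–60 μg/mL protein) preincubated 10 min with compound in 0.1 M potassium phosphate/2 mM EDTA containing 2.5 mM GSH, 0.5% DMSO final. PGH2 (15 μM) reacted 1 min, stopped with stannous chloride. PGE2 quantified by HTRF, IC50 from nonlinear regression of percent inhibition.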

inhibition at 1 µM (crude microsomal fractions) [%] | inhibition at 10 µM (crude microsomal fractions) [%] | IC50 [nM] | inhibition at 3 µM (3 μM test compound, crude microsomal fractions, read-out: Percentage inhibition at 3 μM) [%] | SMILES
37.4 | 59.1 | – | – | Cc1ccc(NC(=O)c2ccc(-n3nc(-c4c(F)cccc4Cl)[nH]c3=O)cc2)c(F)c1 [Example-35, 4-(3-(2-Chloro-6-fluorophenyl)-5-oxo-4,5-dihydro-1H-1,2,4-triazol-1-yl)-N-(2-fluoro-4-methylphenyl)benzamide]
97.6 | 97.5 | < 50 | – | CC(C)(C)C(=O)NCc1ccc(Cl)c(-n2nc(-c3ccc(C#CC4CC4)cc3)[nH]c2=O)c1 [Example-141, N-(4-Chloro-3-(3-(4-(2-cyclopropylethynyl)phenyl)-4,5-dihydro-5-oxo-1,2,4-triazol-1-yl)benzyl)pivalamide]
19.9 | 51.1 | – | – | CC(C)(C)C(=O)NCc1ccc(Cl)c(-c2nn(C3CCCCC3)c(=O)[nH]2)c1F [Example-103, N-(4-Chloro-3-(1-cyclohexyl-5-oxo-4,5-dihydro-1H-1,2,4-triazol-3-yl)-2-fluorobenzyl)pivalamide]
91.8 | 98.7 | < 50 | – | CC(C)(C)C(=O)NCc1ccc(Cl)c(-c2nn(-c3ccc(C(F)(F)F)cc3F)c(=O)[nH]2)c1 [Example-163, N-(4-Chloro-3-(1-(2-fluoro-4-(trifluoromethyl)phenyl)-4,5-dihydro-5-oxo-1H-1,2,4-triazol-3-yl)benzyl)pivalamide]
98.6 | 99 | < 50 | – | COc1cc(-n2nc(-c3c(Cl)cccc3Cl)[nH]c2=O)ccc1C(=O)Nc1ccc(F)c(C(F)(F)F)c1 [Example-43, 4-(3-(2,6-Dichlorophenyl)-5-oxo-4,5-dihydro-1H-1,2,4-triazol-1-yl)-N-(4-fluoro-3-(trifluoromethyl)phenyl)-2-methoxybenzamide]
89.8 | 99.7 | > 100 | – | Cc1ccc(CNC(=O)C(C)(C)C)c(C)c1-c1nn(-c2ccc(C(F)(F)F)cc2)c(=O)[nH]1 [Example-108, N-(3-(1-(4-(Trifluoromethyl)phenyl)-4,5-dihydro-5-oxo-1H-1,2,4-triazol-3-yl)-2,4-dimethylbenzyl)pivalamide]
96.6 | 97.3 | < 50 | – | CC(C)(C)C(=O)NCc1ccc(Cl)c(-c2nn(-c3ccc(C(F)(F)F)c(F)c3)c(=O)[nH]2)c1 [Example-160, N-(4-Chloro-3-(1-(3-fluoro-4-(trifluoromethyl)phenyl)-4,5-dihydro-5-oxo-1H-1,2,4-triazol-3-yl)benzyl)pivalamide]
98 | 95.5 | < 50 | – | O=C(NCc1ccc(Cl)c(-c2nn(-c3ccc(Cl)c(F)c3)c(=O)[nH]2)c1)C(F)(F)F [Example-116, N-(4-chloro-3-(1-(4-chloro-3-fluorophenyl)-4,5-dihydro-5-oxo-1H-1,2,4-triazol-3-yl)benzyl)-2,2,2-trifluoroacetamide]
98 | 97.9 | < 50 | – | CC(C)C(=O)NCc1cc(-c2nn(-c3ccc(C(F)(F)F)cc3)c(=O)[nH]2)c(Cl)cc1F [Example-133, N-(4-Chloro-2-fluoro-5-(1-(4-(trifluoromethyl)phenyl)-4,5-dihydro-5-oxo-1H-1,2,4-triazol-3-yl)benzyl)isobutyramide]
93.9 | 99.7 | 50 to 100 | – | CC(C)c1nnc(-c2ccc(-c3nn(-c4cc(CNC(=O)C(C)(C)C)ccc4Cl)c(=O)[nH]3)cc2)o1 [Example-153, N-(4-Chloro-3-(4,5-dihydro-3-(4-(5-isopropyl-1,3,4-oxadiazol-2-yl)phenyl)-5-oxo-1,2,4-triazol-1-yl)benzyl)pivalamide]
89.5 | 96.5 | < 50 | – | COc1cc(-n2nc(-c3c(F)cccc3Cl)[nH]c2=O)ccc1-c1nc(-c2cc(F)cc(C(F)(F)F)c2)no1 [Example-47, 3-(2-Chloro-6-fluorophenyl)-1-(4-(3-(3-fluoro-5-(trifluoromethyl)phenyl)-1,2,4-oxadiazol-5-yl)-3-methoxyphenyl)-1H-1,2,4-triazol-5(4H)-one]
58.8 | 87.1 | – | – | COc1cc(OC)cc(-c2noc(-c3ccc(-n4nc(-c5c(F)cccc5Cl)[nH]c4=O)cc3OC)n2)c1 [Example-41, 3-(2-Chloro-6-fluorophenyl)-1-(4-(3-(3,5-dimethoxyphenyl)-1,2,4-oxadiazol-5-yl)-3-methoxyphenyl)-1H-1,2,4-triazol-5(4H)-one]
96.5 | 98 | < 50 | – | O=c1[nH]c(-c2cc(CNS(=O)(=O)C3CC3)ccc2Cl)nn1-c1ccc(C(F)(F)F)cc1 [Example-102, N-(4-Chloro-3-(5-oxo-1-(4-(trifluoromethyl)phenyl)-4,5-dihydro-1H-1,2,4-triazol-3-yl)benzyl)cyclopropanesulfonamide]
97.1 | 97.2 | 50 to 100 | – | O=C(NCc1ccc(Cl)c(-c2nn(-c3ccc(C(F)(F)F)cc3)c(=O)[nH]2)c1)[C@@H]1CCCO1 [Example-109, (S)—N-(4-Chloro-3-(1-(4-(trifluoromethyl)phenyl)-4,5-dihydro-5-oxo-1H-1,2,4-triazol-3-yl)benzyl)-tetrahydro furan-2-carboxamide]
95.2 | 99.6 | < 50 | – | COc1cc(-c2nn(-c3c(Cl)cccc3Cl)c(=O)[nH]2)ccc1C#Cc1cc(Cl)ccc1Cl [Example-171, 2-(2,6-Dichlorophenyl)-5-(4-(2-(2,5-dichlorophenyl)ethynyl)-3-methoxyphenyl)-2H-1,2,4-triazol-3 (4H)-one]
29.9 | 71.1 | – | – | COc1cc(-c2nn(-c3c(Cl)cccc3Cl)c(=O)[nH]2)ccc1NC(=O)c1cc(F)cc(F)c1 [Example-177, N-(4-(1-(2,6-Dichlorophenyl)-4,5-dihydro-5-oxo-1H-1,2,4-triazol-3-yl)-2-methoxyphenyl)-3,5-difluorobenzamide]
71 | 83.1 | – | – | O=C(NC1(c2ccccc2C(F)(F)F)CC1)c1ccc(-n2nc(-c3c(F)cccc3Cl)[nH]c2=O)cc1 [Example-24, 4-(3-(2-Chloro-6-fluorophenyl)-5-oxo-4,5-dihydro-1H-1,2,4-triazol-1-yl)-N-(1-(2-(trifluoromethyl)phenyl)cyclopropyl)benzamide]
84.9 | 87.2 | 50 to 100 | – | O=c1[nH]c(-c2c(F)cccc2Cl)nn1-c1ccc(-c2cccc(OC(F)(F)F)c2)cc1 [Example-8, 5-(2-Chloro-6-fluorophenyl)-2-[3′-(trifluoromethoxy)biphenyl-4-yl]-2,4-dihydro-3H-1,2,4-triazol-3-one]
56.2 | 98.1 | – | – | O=C(NCc1ccccc1C(F)(F)F)c1ccc(-n2nc(-c3c(F)cccc3Cl)[nH]c2=O)cc1 [Example-18, 4-[3-(2-Chloro-6-fluorophenyl)-5-oxo-4,5-dihydro-1H-1,2,4-triazol-1-yl]-N-[2-(trifluoromethyl)benzyl]benzamide]
99 | 98.4 | < 50 | – | CC(C)(C)C(=O)NCc1ccc(Cl)c(-c2nn(-c3ccc(C#CC4CC4)cc3)c(=O)[nH]2)c1 [Example-167, N-(4-Chloro-3-(1-(4-(2-cyclopropylethynyl)phenyl)-4,5-dihydro-5-oxo-1H-1,2,4-triazol-3-yl)benzyl)pivalamide]
95.2 | 97.3 | 50 to 100 | – | COc1cc(-n2nc(-c3c(F)cccc3Cl)[nH]c2=O)ccc1-c1nc2cc(C)c(C)cc2n1C [Example-58, 3-(2-Chloro-6-fluorophenyl)-1-(3-methoxy-4-(1,5,6-trimethyl-1H-benzo[d]imidazol-2-yl)phenyl)-1H-1,2,4-triazol-5(4H)-one]
88.9 | – | < 50 | 96.8 | O=c1[nH]c(-c2c(F)cccc2Cl)nn1-c1ccc(C#Cc2ccccc2C(F)(F)F)cc1 [Example-3, 5-(2-Chloro-6-fluorophenyl)-2-(4-{[2-(trifluoromethyl)phenyl]ethynyl}phenyl)-2,4-dihydro-3H-1,2,4-triazol-3-one]
84.8 | 87.5 | < 50 | – | O=c1[nH]c(-c2c(F)cccc2Cl)nn1-c1ccc(C#Cc2cccc(Cl)c2F)cc1 [Example-12, 1-(4-((3-Chloro-2-fluorophenyl)ethynyl)phenyl)-3-(2-chloro-6-fluorophenyl)-1H-1,2,4-triazol-5(4H)-one]
51 | 94.3 | – | – | Cc1ccc(Cl)cc1NC(=O)c1ccc(-n2nc(-c3c(F)cccc3Cl)[nH]c2=O)cc1 [Example-37, N-(5-Chloro-2-methylphenyl)-4-(3-(2-chloro-6-fluorophenyl)-5-oxo-4,5-dihydro-1H-1,2,4-triazol-1-yl)benzamide]
95.5 | 99.2 | > 100 | – | Cc1ccc(CNC(=O)C(C)(C)CF)c(C)c1-c1nn(-c2ccc(C#CC3CC3)cc2)c(=O)[nH]1 [Example-169, N-(3-(1-(4-(2-Cyclopropylethynyl)phenyl)-4,5-dihydro-5-oxo-1H-1,2,4-triazol-3-yl)-2,4-dimethylbenzyl)-3-fluoro-2,2-dimethylpropanamide]
